Laboratory results as given in US8513232B2, “Substituted spirocyclic piperidine derivatives as histamine-3 (H3) receptor ligands” (Cephalon, Inc., priority 2008, dated 2013).
pKi: −log10 of the molar value. Read-outs that look alike come from different tables or passages of the source.

Assays:
[1] = molecular target: T1, human H3 receptor (Homo sapiens, UniProt Q9Y5N1); experiment: Human H3 radioligand binding ([3H]-N-alpha-methylhistamine, SPA)
T1 construct: expressed in transfected cells
In short: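 Compounds (0.01 nM-30 μM) competed with approximately 1 nM [3H]-N-alpha-methylhistamine for human H3 receptor in membranes of stably transfected CHO cells, 10 μg protein per well, in Tris-HCl pH 7.4/MgCl2/BSA buffer for 4 h at room temperature. Bound radioligand measured by scintillation proximity; 10 μM clobenpropit gave non-specific binding.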

[2] = molecular target: T2, rat histamine H3 receptor (Rattus norvegicus, UniProt Q9QYN8); experiment: Rat H3 radioligand binding ([3H]-N-alpha-methylhistamine, SPA)
T2 construct: encoding the entire 445-amino-acid rat histamine H3 receptor; expressed in transfected cells; membrane preparation
In short: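 SPA-bead binding assay using [3H]-N-alpha-methylhistamine (approximately 1 nM final) with test compounds from 0.01 nM to 30 μM. Rat H3 receptor membranes came from stably transfected CHO-A3 cells; incubation ran 4 h at room temperature, in the dark, in Tris pH 7.4 buffer with MgCl2 and BSA. Clobenpropit (10 μM) gave non-specific binding.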

[3] = Human H3 binding, Table B, Examples 136-362, read-out: hum H3 binding Ki
[4] = Rat H3 binding, Table B, Examples 136-362, read-out: rat H3 binding Ki
[5] = human H3 binding, Table D, read-out: Human H3 Ki
[6] = rat H3 binding, Table D, read-out: Rat H3 Ki
[7] = Table C, human H3 binding, read-out: Human H3 Ki
[8] = Table C, rat H3 binding, read-out: Rat H3 Ki

T1 sequence (Q9Y5N1 whole entry): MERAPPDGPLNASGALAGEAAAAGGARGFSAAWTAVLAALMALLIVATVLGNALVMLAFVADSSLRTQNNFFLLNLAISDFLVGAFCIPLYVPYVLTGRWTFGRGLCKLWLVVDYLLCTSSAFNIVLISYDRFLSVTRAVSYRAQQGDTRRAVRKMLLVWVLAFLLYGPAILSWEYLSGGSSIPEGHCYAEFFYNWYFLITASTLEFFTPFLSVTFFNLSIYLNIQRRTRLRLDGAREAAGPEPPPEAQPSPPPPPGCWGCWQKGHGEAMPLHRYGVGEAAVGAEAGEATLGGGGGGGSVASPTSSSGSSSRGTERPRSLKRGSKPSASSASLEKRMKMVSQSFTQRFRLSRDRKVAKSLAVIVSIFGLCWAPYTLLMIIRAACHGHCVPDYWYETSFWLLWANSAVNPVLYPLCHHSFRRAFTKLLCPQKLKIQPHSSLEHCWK
T2 sequence (Q9QYN8 whole entry): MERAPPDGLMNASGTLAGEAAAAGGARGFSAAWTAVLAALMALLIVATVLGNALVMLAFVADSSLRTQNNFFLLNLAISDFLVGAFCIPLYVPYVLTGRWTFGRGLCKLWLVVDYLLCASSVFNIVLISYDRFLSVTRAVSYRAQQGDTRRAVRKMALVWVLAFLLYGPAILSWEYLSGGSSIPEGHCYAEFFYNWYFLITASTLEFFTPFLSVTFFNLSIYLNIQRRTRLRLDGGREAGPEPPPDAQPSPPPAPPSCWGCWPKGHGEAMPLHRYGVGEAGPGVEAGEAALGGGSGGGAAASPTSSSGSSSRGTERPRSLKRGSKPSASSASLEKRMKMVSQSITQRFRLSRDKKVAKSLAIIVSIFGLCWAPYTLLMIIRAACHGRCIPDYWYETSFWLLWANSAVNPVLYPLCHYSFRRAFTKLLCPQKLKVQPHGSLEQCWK

Row | pKi [1, 3] | pKi [2, 4] | melting point [°C] | pKi [1, 5] | pKi [2, 6] | Compound | other results
1 | > 6.70 | > 6.70 | 184 to 185 |  |  | Cc1cc(C(=O)Nc2ccc3c(c2)COC2(CCN(C4CCC4)CC2)O3)ccn1 [Example 315] | 
2 |  |  | 199.3 to 201.2 | > 6.70 | > 6.70 | CC(C)C(=O)NC1CCN(c2ccc3c(c2)CCC2(CCN(C4CCC4)CC2)O3)CC1 [Example 571] | 
3 |  |  | 125 to 126 |  |  | CN1CCN(c2ccc3c(c2)CCC2(CCN(C4CCC4)CC2)O3)CC1 [Example 364] | pKi [1, 7]: > 6.70; pKi [2, 8]: > 6.70
4 |  |  | 184 to 186 |  |  | O=C(c1ccc(-c2ccc3c(c2)COC2(CCN(C4CCC4)CC2)O3)cc1)N1CC[C@H](F)C1 [Example 68] | pKi ([1]; Table A, human H3 binding, read-out: Human Ki): > 6.70; pKi ([2]; Table A, rat H3 binding, read-out: Rat Ki): > 6.70
5 |  |  | 157 to 159 |  |  | O=C(C1CC(O)(c2ccc3c(c2)COC2(CCN(C4CCC4)CC2)O3)C1)N1CCCC1 (stereo not drawn) [Example 482] | pKi ([1]; read-out: Human H3 Ki): > 6.70; pKi ([2]; read-out: Rat H3 kI): > 6.70
6 |  |  | 227 to 229 |  |  | COc1ncc(Oc2ccc3c(c2)CCC2(CCN(C4CCC4)CC2)O3)cn1 [Example 503] | pKi ([1]; read-out: Human H3 Ki): > 6.70; pKi ([2]; read-out: Rat H3 kI): > 6.70
7 | > 6.70 | > 6.70 | 167 to 169 |  |  | O=C(Cc1cccnc1)Nc1ccc2c(c1)COC1(CCN(C3CCC3)CC1)O2 [Example 333] | 
8 | > 6.70 | > 6.70 | 107 to 110 |  |  | CN(C(=O)N1CCN(c2ccc3c(c2)COC2(CCN(C4CCC4)CC2)O3)CC1)c1ccccc1 [Example 293] | 
9 | > 6.70 | > 6.70 | 155.5 to 157.3 |  |  | CC(C)OCCNC(=O)c1ccc(-c2ccc3c(c2)COC2(CCN(C4CCC4)CC2)O3)cc1 [Example 311] | 
10 |  |  | 189 to 191 | > 6.70 | > 6.70 | O=C(N[C@@H]1CCOC1)c1ccc(-c2ccc3c(c2)COC2(CCN(C4CCC4)CC2)O3)cc1Cl [Example 605] | 
11 |  |  | 175 to 177 | > 6.70 | > 6.70 | CNC(=O)c1ccc(-c2ccc3c(c2)COC2(CCN(C4CCC4)CC2)O3)nc1 [Example 590] | 
12 |  |  | 256 to 258 |  |  | CCOC(=O)C1CCN(c2ccc3c(c2)CCC2(CCN(C4CCC4)CC2)O3)CC1 [Example 384] | pKi [1, 7]: > 6.70; pKi [2, 8]: > 6.70
13 | > 6.70 | > 6.70 | 174 to 175 |  |  | Cc1nc(C)c(C(=O)Nc2ccc3c(c2)COC2(CCN(C4CCC4)CC2)O3)s1 [Example 308] | 
14 | > 6.70 | > 6.70 | 234 to 235 |  |  | COCCNC(=O)c1ccc(-c2ccc3c(c2)COC2(CCN(C4CCC4)CC2)O3)cc1Cl [Example 330] | 
15 |  |  | 186 to 187.5 | > 6.70 | > 6.70 | CC(C)NC(=O)c1ccc(-c2ccc3c(c2)COC2(CCN(C4CCC4)CC2)O3)cc1Cl [Example 596] | 
16 | > 6.70 | > 6.70 | 101 to 102 |  |  | c1cc(CNc2ccc3c(c2)COC2(CCN(C4CCC4)CC2)O3)cs1 [Example 336] | 
17 |  |  | 267 to 269 | > 6.70 | > 6.70 | NC(=O)c1ccc(-c2ccc3c(c2)COC2(CCN(C4CCC4)CC2)O3)cc1O [Example 743] | 
18 |  |  | 230 to 232 | > 6.70 | > 6.70 | O=c1[nH]ccc(-c2ccc3c(c2)COC2(CCN(C4CCC4)CC2)O3)c1Cl [Example 666] | 
19 |  |  | 231 to 232 |  |  | COc1ccc(-c2ccc3c(c2C)COC2(CCN(C4CCC4)CC2)O3)cn1 [Example 551] | pKi ([1]; read-out: Human H3 Ki): > 6.70; pKi ([2]; read-out: Rat H3 kI): > 6.70
20 |  |  | 290 to 292 |  |  | O=C(C1CCN(c2ccc3c(c2)CCC2(CCN(C4CCC4)CC2)O3)CC1)N1CCCC1 [Example 418] | pKi [1, 7]: > 6.70; pKi [2, 8]: > 6.70
21 |  |  | 186 to 188 | > 6.70 | > 6.70 | CNC(=O)c1cc(-c2ccc3c(c2)COC2(CCN(C4CCC4)CC2)O3)cs1 [Example 607] | 
